The values below come from ChEMBL document CHEMBL3045901, “Aryldiones incorporating a [1,4,5]oxadiazepane ring. Part 2: chemistry and biology of the cereal herbicide pinoxaden” (Pest Manag Sci, 2011).

Each structure is given as a SMILES string.

What all share (type): functional
One assay concerns Avena fatua. Briefly: Herbicidal activity against Avena fatua assessed as weed control at 30 g/ha under greenhouse measured after 21 days by post-emergence test.
The subject of the next assay is Lolium perenne. The experiment in a line: Herbicidal activity against Lolium perenne (perennial ryegrass) assessed as weed control at 30 g/ha under greenhouse measured after 21 days by post-emergence test.
The next assay concerns Alopecurus myosuroides. Briefly: Herbicidal activity against Alopecurus myosuroides assessed as weed control at 30 g/ha under greenhouse measured after 21 days by post-emergence test.
A further assay relates to Setaria faberi. The experiment in a line: Herbicidal activity against Setaria faberi (Giant Foxtail) assessed as weed control at 30 g/ha under greenhouse measured after 21 days by post-emergence test.
A further assay has as its system Hordeum vulgare. Briefly: Herbicidal activity against Hordeum vulgare (barley) assessed as weed control at 30 g/ha under greenhouse measured after 21 days by post-emergence test.
A further assay concerns Triticum aestivum. The experiment in a line: Herbicidal activity against Triticum aestivum (wheat) assessed as weed control at 30 g/ha under greenhouse measured after 21 days by post-emergence test.

With `Cc1cc(C)c(C2C(=O)N3CCOCCN3C2=O)c(C)c1`, the Activity is reported as 60% in the assay with Avena fatua; 80% with Lolium perenne; 10% in the assay with Alopecurus myosuroides; 50% in the assay on Setaria faberi; 0% in the assay with Hordeum vulgare; 0% in the assay with Triticum aestivum.
On to `COc1cc(C)cc(Br)c1C1C(=O)N2CCOCCN2C1=O`, for which the Activity in the assay on Avena fatua stood at 60%; in the assay on Lolium perenne, 100%; with Alopecurus myosuroides it was 20%; in the assay on Setaria faberi it was 60%; in the assay with Hordeum vulgare, 20%; in the assay on Triticum aestivum it was 10%.
Take `CCc1cc(C)cc(CC)c1C1C(=O)N2CCC(O)CCN2C1=O`: the Activity is given as 100% in the assay with Avena fatua; 90% in the assay with Lolium perenne; 100% with Alopecurus myosuroides; 90% in the assay on Setaria faberi; 40% in the assay on Hordeum vulgare; 80% in the assay on Triticum aestivum.
For the compound `CCc1cc(C)cc(CC)c1C1C(=O)N2CCC(C)(O)CCN2C1=O`, the Activity in the assay with Avena fatua was 80%; in the assay with Lolium perenne, 100%; in the assay on Alopecurus myosuroides, 100%; with Setaria faberi, 90%; in the assay on Hordeum vulgare it was 90%; in the assay with Triticum aestivum, 80%.
Regarding `CCc1cc(C)cc(CC)c1C1C(=O)N2CCCOCN2C1=O` (stereo unspecified), the Activity in the assay with Avena fatua turned out to be 40%; with Lolium perenne, 40%; in the assay on Alopecurus myosuroides it was 0%; in the assay on Setaria faberi, 10%; in the assay on Hordeum vulgare, 0%; with Triticum aestivum, 0%.
Regarding `CCc1cc(C)cc(CC)c1C1C(=O)N2C(C)COCC(C)N2C1=O` (stereo unspecified), the Activity turned out to be 50% in the assay on Avena fatua; 40% with Lolium perenne; 60% with Alopecurus myosuroides; 80% in the assay with Setaria faberi; 0% in the assay on Hordeum vulgare; 0% with Triticum aestivum.
On to `CCc1cc(C)cc(CC)c1C1C(=O)N2CCOC(C)CN2C1=O` (stereo unspecified), for which the Activity with Avena fatua is 40%; with Lolium perenne, 90%; in the assay on Alopecurus myosuroides it was 60%; in the assay on Setaria faberi it was 90%; with Hordeum vulgare it was 0%; in the assay with Triticum aestivum, 0%.
Turning to `CCc1cc(C)cc(CC)c1C1C(=O)N2CCOC(CC)CN2C1=O` (stereo unspecified), the Activity was found to be 40% in the assay with Avena fatua; 80% with Lolium perenne; 20% in the assay on Alopecurus myosuroides; 20% in the assay on Setaria faberi; 0% in the assay with Hordeum vulgare; 0% with Triticum aestivum.
For the compound `CCc1cc(C)cc(CC)c1C1C(=O)N2CC(C)OC(C)CN2C1=O` (stereo unspecified), the Activity was determined as 90% in the assay on Avena fatua; 80% in the assay with Lolium perenne; 50% with Alopecurus myosuroides; 90% in the assay with Setaria faberi; 0% in the assay with Hordeum vulgare; 0% with Triticum aestivum.
On to `CCc1cc(C)cc(CC)c1C1C(=O)N2C[C@H]3CC[C@@H](CN2C1=O)O3` (stereo partly specified), for which the Activity with Avena fatua amounted to 80%; in the assay on Lolium perenne, 80%; in the assay on Alopecurus myosuroides it was 40%; in the assay with Setaria faberi, 80%; in the assay on Hordeum vulgare, 0%; with Triticum aestivum, 0%.
Turning to `CCc1cc(C)cc(CC)c1C1C(=O)N2C[C@H]3COC[C@H]3CN2C1=O` (stereo partly specified), the Activity in the assay on Avena fatua turned out to be 100%; in the assay with Lolium perenne, 90%; with Alopecurus myosuroides, 100%; in the assay on Setaria faberi it was 100%; in the assay with Hordeum vulgare, 0%; in the assay with Triticum aestivum, 40%.
Turning to `Cc1cc(Br)c(C2C(=O)N3CCOCCN3C2=O)c(Br)c1`, the Activity with Avena fatua stood at 40%; in the assay with Lolium perenne, 10%; in the assay with Alopecurus myosuroides, 0%; with Setaria faberi, 10%; in the assay with Hordeum vulgare, 0%; with Triticum aestivum, 0%.
In the case of `Cc1cc(C)c(C2C(=O)N3CCOCCN3C2=O)c(Br)c1`, the Activity with Avena fatua is recorded as 40%; in the assay on Lolium perenne, 90%; with Alopecurus myosuroides, 0%; in the assay on Setaria faberi, 40%; in the assay on Hordeum vulgare it was 0%; in the assay with Triticum aestivum, 0%.
Take `CCc1cc(C)cc(C)c1C1C(=O)N2CCOCCN2C1=O`: the Activity with Avena fatua worked out at 80%; in the assay with Lolium perenne, 60%; with Alopecurus myosuroides it was 60%; in the assay on Setaria faberi, 60%; in the assay with Hordeum vulgare, 40%; in the assay on Triticum aestivum, 20%.
With `CCCc1cc(C)cc(C)c1C1C(=O)N2CCOCCN2C1=O`, the Activity was determined as 80% in the assay with Avena fatua; 60% with Lolium perenne; 20% in the assay on Alopecurus myosuroides; 40% in the assay with Setaria faberi; 0% with Hordeum vulgare; 0% in the assay with Triticum aestivum.
Regarding `Cc1cc(C)c(C2C(=O)N3CCOCCN3C2=O)c(C(C)C)c1`, the Activity with Avena fatua is listed as 50%; in the assay with Lolium perenne it was 50%; in the assay on Alopecurus myosuroides, 0%; in the assay with Setaria faberi it was 20%; in the assay with Hordeum vulgare, 0%; in the assay with Triticum aestivum, 0%.
With `Cc1cc(C)c(C2C(=O)N3CCOCCN3C2=O)c(C2CC2)c1`, the Activity was determined as 90% in the assay with Avena fatua; 50% in the assay on Lolium perenne; 0% with Alopecurus myosuroides; 60% in the assay with Setaria faberi; 0% in the assay with Hordeum vulgare; 0% with Triticum aestivum.
As for `C#Cc1cc(C)cc(C)c1C1C(=O)N2CCOCCN2C1=O`, the Activity is listed as 100% with Avena fatua; 90% in the assay on Lolium perenne; 80% with Alopecurus myosuroides; 100% in the assay with Setaria faberi; 40% in the assay on Hordeum vulgare; 50% in the assay with Triticum aestivum.
Consider `CC#Cc1cc(C)cc(C)c1C1C(=O)N2CCOCCN2C1=O`, for which the Activity came to 40% in the assay on Avena fatua; 60% in the assay with Lolium perenne; 0% with Alopecurus myosuroides; 40% with Setaria faberi; 10% in the assay with Hordeum vulgare; 10% in the assay with Triticum aestivum.
Regarding `CCc1cc(C)c(C2C(=O)N3CCOCCN3C2=O)c(CC)c1`, the Activity in the assay on Avena fatua turned out to be 50%; in the assay on Lolium perenne it was 60%; with Alopecurus myosuroides, 0%; in the assay with Setaria faberi, 60%; in the assay with Hordeum vulgare, 0%; in the assay on Triticum aestivum, 0%.
For `C#Cc1cc(C)c(C2C(=O)N3CCOCCN3C2=O)c(CC)c1`, the Activity in the assay with Avena fatua stood at 20%; in the assay on Lolium perenne, 10%; with Alopecurus myosuroides, 20%; with Setaria faberi, 20%; in the assay on Hordeum vulgare, 10%; in the assay on Triticum aestivum, 0%.
For `CCc1cccc(CC)c1C1C(=O)N2CCOCCN2C1=O`, the Activity in the assay with Avena fatua is listed as 0%; with Lolium perenne, 0%; with Alopecurus myosuroides, 0%; with Setaria faberi, 90%; with Hordeum vulgare, 0%; in the assay on Triticum aestivum, 0%.
`CCc1cc(CC)c(C2C(=O)N3CCOCCN3C2=O)c(CC)c1`: the Activity with Avena fatua was 60%; in the assay on Lolium perenne, 60%; with Alopecurus myosuroides, 40%; with Setaria faberi, 40%; in the assay with Hordeum vulgare, 0%; with Triticum aestivum it was 0%.
As to `CCc1cc(I)cc(CC)c1C1C(=O)N2CCOCCN2C1=O`, the Activity in the assay on Avena fatua, in the assay on Lolium perenne, with Alopecurus myosuroides, in the assay with Setaria faberi, in the assay on Hordeum vulgare and in the assay on Triticum aestivum was 0% each time.
With `CCc1cc(-c2ccccc2)cc(CC)c1C1C(=O)N2CCOCCN2C1=O`, the Activity in the assay on Avena fatua was determined as 90%; in the assay on Lolium perenne, 80%; in the assay on Alopecurus myosuroides, 90%; in the assay with Setaria faberi, 80%; with Hordeum vulgare it was 80%; in the assay on Triticum aestivum it was 80%.
As for `CCCc1cc(C)cc(CCC)c1C1C(=O)N2CCOCCN2C1=O`, the Activity with Avena fatua was found to be 80%; in the assay with Lolium perenne, 0%; with Alopecurus myosuroides, 50%; with Setaria faberi, 90%; in the assay on Hordeum vulgare, 0%; in the assay with Triticum aestivum, 0%.
Regarding `C#Cc1cc(C)cc(CC)c1C1C(=O)N2CCOCCN2C1=O`, the Activity in the assay with Avena fatua was 100%; with Lolium perenne it was 100%; in the assay with Alopecurus myosuroides, 100%; in the assay on Setaria faberi, 100%; with Hordeum vulgare, 50%; with Triticum aestivum it was 50%.
With `C#Cc1cc(C)cc(C#C)c1C1C(=O)N2CCOCCN2C1=O`, the Activity turned out to be 90% in the assay with Avena fatua; 80% in the assay on Lolium perenne; 80% with Alopecurus myosuroides; 90% in the assay with Setaria faberi; 20% in the assay with Hordeum vulgare; 20% with Triticum aestivum.
As to `CCc1cc(C)cc(OC)c1C1C(=O)N2CCOCCN2C1=O`, the Activity in the assay with Avena fatua was 90%; in the assay with Lolium perenne, 80%; in the assay on Alopecurus myosuroides, 90%; in the assay on Setaria faberi, 100%; in the assay with Hordeum vulgare it was 50%; with Triticum aestivum, 50%.
Regarding `C#Cc1cc(C)cc(OC)c1C1C(=O)N2CCOCCN2C1=O`, the Activity was determined as 0% with Avena fatua; 100% with Lolium perenne; 20% in the assay on Alopecurus myosuroides; 90% in the assay with Setaria faberi; 0% with Hordeum vulgare; 0% in the assay with Triticum aestivum.
As for `CCc1cc(-c2ccccc2)cc(OC)c1C1C(=O)N2CCOCCN2C1=O`, the Activity in the assay on Avena fatua is given as 100%; in the assay with Lolium perenne it was 90%; in the assay with Alopecurus myosuroides it was 80%; in the assay on Setaria faberi, 90%; in the assay with Hordeum vulgare, 90%; in the assay on Triticum aestivum it was 90%.
